# Assay results: patent publication US20180111991A1, “MODULATORS OF ACTIVIN AND METHODS FOR MODULATING IMMUNE RESPONSES AND T FOLLICULAR HELPER CELLS” (LA JOLLA INSTITUTE FOR ALLERGY AND IMMUNOLOGY, priority 2014, published 2018)
# “Also recorded” adds a separate entry of the source.
# How the values were obtained:
# human naïve CD4 T cells [1] = experiment: In vitro Tfh differentiation, PD-1 and CXCR5 expression by FACS; assay type: cell-based
# Method: (§1) For surface staining, primary-staining panels used for phenotypic analysis or for cell sorting known in the art were used. For the intranuclear staining: cells were treated with the FoxP3 Fixation/Permeabilization kit (eBioscience) and stained in Permeabilization buffer (eBioscience). For cytokine staining: day 3 or day 5 in vitro differentiated cells (specified in the main text or in figure legends) cells were stimulated for 5 hours at 37° C. with Phorbol 12-myristate 13-acetate (PMA, 25 ng/ml) and Ionomycin (1 μg/ml) in the presence of Brefeldin A (5 μg/ml). Cells were fixed with PBS 2% FBS, 1% PFA and permeabilized with PBS 2% FBS, 0.5% Saponin (from quillaja bark, Sigma-Aldrich). Samples were analyzed on a LSR Fortessa Cell Analyzer (BD, Bioscience). Flow cytometry data were analyzed with FlowJo (Tree Star). For cell sorting, cells were sorted using sorted using a FACS Aria (BD, Bioscience).
# (§2) Unless differently specified, naïve CD4^+ T cells were enriched from PBMCs by magnetic bead negative selection with the Naïve CD4^+ T Cell Isolation Kit (Stem Cell Technologies). Purity (CD4^+CD45RA^+) was 90% or higher. Cells (7.5×10^4 cells/well) were activated by Dynabeads Human T-Activator CD3/CD28 (2 μl/well, Life Technologies) and cultured with recombinant human/mouse/rat activin A (50 ng/ml or 100 ng/ml), recombinant human IL-12 (5 ng/ml), recombinant human TGFβ (1 ng/ml), recombinant human IL-23 (10 ng/ml) or recombinant human IL-35 (10 ng/ml) in the presence of and recombinant human IL-7 (4 ng/ml) in AIM-V medium (Life Technologies). All cytokines were from R&D System and Peprotech. The 14 kDa mature human beta A chain of human activin A shares 100% amino acid sequence identity with bovine, feline, mouse, porcine, and rat beta A. Phenotype was quantified after 3 or 5 days, as specified in the main text of Figure legends. Similar results were obtained when using Treg-depleted FACS sorted naïve CD4 T cells, in which cells were sorted from total PBMCs by flow cytometry as CD19^−CD8^−CD14^−CD16^− CD4^+CD45RO^−CD25^− cells. For experiments quantifying supernatant CXCL13 concentration, cells were activated by plate-bound anti-human CD3 (5 μg/ml, BD) and ICOS-L (5 μg/ml, recombinant human B7-H2, R&D). CXCL13 concentrations were determined via human CXCL13 DuoSet ELISA (R&D) on supernatants harvested after 5 days of in vitro culture. For blocking experiments, cells were cultured with anti-activin A blocking mAb (5 μg/ml, clone 69403, R&D), anti-TGFβ mAb (100 μg/ml, clone 1D11.16.8, BioXcell), or equivalent concentration of mouse IgG1 isotype mAb (BioXcell). For blockade of IL-2, cells were cultured with anti-IL-2 blocking mAb (10 μg/ml, clone 5334, R&D) or mouse IgG1 isotype mAb (BioXcell).
# human naïve CD4 T cells [2] = experiment: BCL6 intranuclear expression by FACS on in vitro differentiated cells; assay type: cell-based; details: for induction of Bcl6+CXCR5+ cells: titration with or without IL-12 (FIG. 11)
# Method: as §1, §2
# human naïve CD4 T cells [3] = experiment: RNA sequencing and GSEA of in vitro differentiated CD4 T cells; assay type: cell-based; details: for genes differentially upregulated, activin A+IL-12 versus TGFβ+IL-12: each cytokine combined with IL-12, RNA-seq day 3; for expression of bona fide GC Tfh signature genes (GSEA): activin A or activin A+IL-12 versus beads, IL-12
# Method: Differentiation of naïve CD4^+ T cells with activin A and/or IL-12 was described above. Naïve CD4 T cells from 4 or more donors were cultured with the following conditions: beads only (beads), IL-12, activin A (100 ng/ml), activin A (100 ng/ml)+IL-12, TGFβ, TGFβ+IL-12. After 3 days of in vitro culture, live CD4^+ T cells were sorted by FACS. Total RNA was purified using miRNAeasy Mini kit (Qiagen). Standard quality control steps were included to determine total RNA quality using Agilent Bioanalyzer (RNA integrity number (RIN)>8.5; Agilent RNA 6000 Nano Kit, USA) and quantity using a nanoliter spectrophotometer (Nanodrop, Thermofisher, USA). For every sample, 500 ng of purified total RNA was prepared into mRNA libraries, according to manufacturer's instructions, using the Truseq Stranded mRNA Library Prep Kit (Illumina, RS-122-2103). The resulting libraries were deep sequenced, using the Illumina HiSeq2500 system in rapid run mode, to obtain between 6 to 7 millions of 50-bp length single-end reads per library.
# The single-end reads that passed Illumina filters were filtered for reads aligning to tRNA, rRNA, adapter sequences, and spike-in controls. The reads were then aligned to UCSC hg19 reference genome using TopHat^55(v 1.4.1). DUST scores were calculated with PRINSEQ Lite^56 (v 0.20.3) and low-complexity reads (DUST >4) were removed from the BAM files. The alignment results were parsed via the SAMtools^57 to generate SAM files. Read counts to each genomic feature were obtained with the htseq-count program^58 (v 0.6.0) using the “union” option. After removing absent features (zero counts in all samples), the raw counts were converted to RPKM value followed by quantile normalization via R library ‘aroma.light’ ^59. Then the quantile normalized RPKM values were filtered by setting a cutoff value of 1 and analyzed with the Multiplot module in GenePattern suite (http://www.broadinstitute.org/cancer/software/genepattern/) to generate the Volcano, Heatmap and Expression plots. Meanwhile the filtered raw counts were imported to R/Bioconductor package DESeq2^60 (v 3.1) to normalize counts and identify differentially expressed genes among conditions.
# The tonsil GC Tfh gene set was generated from previously published microarray data^38 and defined by genes with more than two-fold higher expression in GC-Tfh cells (CD4^+CD45RO^+PD-1^hiCXCR5^hi) compared to non-Tfh cells (CD4^+CD45RO^+PD-1^−CXCR5^−). […] The signal-to-noise metric was used for ranking the genes in the RNA-seq expression datasets and 10^5 cycles of permutations on the phenotype labels were performed to determine the normalized enrichment score (NES).
# human naïve CD4 T cells [4] = experiment: FoxP3 induction by FACS in in vitro differentiated cells; assay type: cell-based; details: for FoxP3 expression (FoxP3+ cells): with or without IL-12, day 5
# Method: as §1
# Unless differently specified, naïve CD4^+ T cells were enriched from PBMCs by magnetic bead negative selection with the Naïve CD4^+ T Cell Isolation Kit (Stem Cell Technologies). Purity (CD4^+CD45RA^+) was 90% or higher. […] The 14 kDa mature human beta A chain of human activin A shares 100% amino acid sequence identity with bovine, feline, mouse, porcine, and rat beta A. Phenotype was quantified after 3 or 5 days, as specified in the main text of Figure legends. […] For experiments quantifying supernatant CXCL13 concentration, cells were activated by plate-bound anti-human CD3 (5 μg/ml, BD) and ICOS-L (5 μg/ml, recombinant human B7-H2, R&D). CXCL13 concentrations were determined via human CXCL13 DuoSet ELISA (R&D) on supernatants harvested after 5 days of in vitro culture. […]
# human naïve CD4 T cells [5] = experiment: CXCL13 ELISA on supernatants of differentiated CD4 T cells; assay type: cell-based; details: plate bound anti-CD3 and ICOS-L, 5 days
# Method: as §2, with “Similar results were obtained when using Treg-depleted FACS sorted naïve CD4 T cells, in which cells were sorted from total PBMCs by flow cytometry as CD19^−CD8^−CD14^−CD16^− CD4^+CD45RO^−CD25^− cells.” left out, “For blocking experiments, cells were cultured with anti-activin A blocking mAb (5 μg/ml, clone 69403, R&D), anti-TGFβ mAb (100 μg/ml, clone 1D11.16.8, BioXcell), or equivalent concentration of mouse IgG1 isotype mAb (BioXcell). For blockade of IL-2, cells were cultured with anti-IL-2 blocking mAb (10 μg/ml, clone 5334, R&D) or mouse IgG1 isotype mAb (BioXcell).” left out
# human naïve CD4 T cells [6] = experiment: Intracellular cytokine staining after PMA/Ionomycin restimulation; assay type: cell-based
# Method: as §1
# [7] = test system: autologous memory B cells; experiment: T-B co-culture, B cell help; assay type: cell-based, human; details: CD4 T cells differentiated with activin A+IL-12, 7 days with SEB
# [8] = activin A alone, anti CD3/CD28 coated beads
substance,measurement,setting,value
TGFβ,induction of CXCR5 and PD-1 expression,"human naïve CD4 T cells [1]; TGFβ with IL-12, serum free media",can synergize with IL-12 to induce CXCR5 and PD-1 expression
same,induction of Bcl6+CXCR5+ cells,human naïve CD4 T cells [2],No detectable induction of Bcl6
same,"genes differentially upregulated, activin A+IL-12 versus TGFβ+IL-12",human naïve CD4 T cells [3],45 genes
same,FoxP3 expression (FoxP3+ cells),human naïve CD4 T cells [4],induce high FoxP3 expression; also recorded: preferentially induces FoxP3
"activin A: commercial recombinant cytokine, homodimer of the INHBA gene product (inhibin beta A)",CXCR5 expression,human naïve CD4 T cells [1]; [8],some CXCR5 expression
same,PD-1 induction,human naïve CD4 T cells [1]; [8],massive PD-1 induction
same,"PD-1 and CXCR5 expression (PD1+CXCR5+ cells), additive or synergistic effect",human naïve CD4 T cells [1]; activin A combined with TGFβ,no synergy between TGFβ and activin A; also recorded: neither PD-1 nor CXCR5 expression changed when activin A and TGFβ were combined
same,retention of CXCR5 and PD-1 expression over time,"human naïve CD4 T cells [1]; activin A in combination with IL-12, monitored 0-10 days",retained
same,"capacity to regulate differentiation of PD-1+CXCR5+ cells, TGFβ compared with activin A",human naïve CD4 T cells [1]; combined with IL-12,induced similar levels of CXCR5 and PD-1 expression compared to TGFβ
same,coexpression of PD-1 and CXCR5 (PD-1+CXCR5+ cells),human naïve CD4 T cells [1]; in combination with IL-12,dramatic increase in the coexpression of PD-1 and CXCR5; also recorded: synergistic effect with IL-12
same,PD-1 and CXCR5 expression on activated naïve CD4 T cells,"human naïve CD4 T cells [1]; serum free conditions, activin A titration",induces both PD-1 and CXCR5 expression on activated naïve CD4 T cells in a dose dependent fashion
same,Bcl6 protein expression,"human naïve CD4 T cells [2]; activin A with or without IL-12, FACS intranuclear staining (FIG. 8C)","significant expression of Bcl6, particularly when combined with IL-12"
same,BCL6 expression,"human naïve CD4 T cells [2]; activin A+IL-12, day 5 (FIG. 2F)",a fraction of CD4 T cells differentiated with activin A+IL-12 increased expression of BCL6
same,induction of Bcl6+CXCR5+ cells,human naïve CD4 T cells [2],No detectable induction of Bcl6
same,"regulation of Tfh-signature genes LIF, LTA, PDCD1, TNF","human naïve CD4 T cells [3]; RNA-seq day 3, heat-map (FIG. 2K)","major factor regulating several Tfh-signature genes such as LIF, LTA, PDCD1, and TNF"
same,expression of bona fide GC Tfh signature genes (GSEA),human naïve CD4 T cells [3],imprinted with bona fide GC Tfh signature genes
same,expression of bona fide GC Tfh signature genes (GSEA),human naïve CD4 T cells [3]; listed as Activin A,contributed more than IL-12 to driving expression of bona fide GC Tfh associated genes
same,genes selectively upregulated versus beads only,"human naïve CD4 T cells [3]; activin A+IL-12, RNA-seq day 3",116 genes
same,genes suppressed versus beads only,"human naïve CD4 T cells [3]; activin A+IL-12, RNA-seq day 3",60 genes
same,"genes differentially upregulated, activin A+IL-12 versus TGFβ+IL-12",human naïve CD4 T cells [3],35 genes
same,CXCL13 expression / secretion,human naïve CD4 T cells [5],selectively induces CXCL13 expression
same,IL-21 production,"human naïve CD4 T cells [6]; cells cultured with activin A+IL-12, PMA/Ionomycin re-stimulation",retained full IL-21 production potential
same,TNFα and LTα protein expression,"human naïve CD4 T cells [6]; day 3 cells, PMA/Ionomycin restimulation",superior ability of CD4 T cells cultured with activin A to express TNFα and LTα proteins
same,"B cell help (B cell proliferation and survival, plasmablast differentiation, IgG production)",[7],functionally competent B cell helpers
same,FoxP3 upregulation (FoxP3+CXCR5+ cells),human naïve CD4 T cells [4]; activin A with recombinant TGFβ,synergize in inducing FoxP3 upregulation
same,FoxP3 expression (FoxP3+ cells),human naïve CD4 T cells [4],but not activin A was found to induce high FoxP3 expression; also recorded: less potent than TGFβ in driving the generation of FoxP3^+ cells; also recorded: induced less FoxP3 expression
